Source: ChEMBL document CHEMBL3885861, “Open TG-GATES”

Species on record: Rattus norvegicus
Test: Open TG-GATES - Regimen: Daily Repeat
Type: toxicity, organism-based, Sprague-Dawley
Parameters: regimen Daily Repeat, gender Male, age 6 weeks
Details: in vivo, po, 0 mg/kg, route gavage, dose level Control; for APTT / Bas / Eos / Fbg / Hb / Ht / Lym / MCH / MCHC / MCV / Mono / Neu / PT / Plat / RBC / Ret / WBC: tissue Blood; for KIDNEY_L / KIDNEY_R / KIDNEY_TOTAL: tissue Kidney; for LIVER: tissue Liver; for A/G / ALP / ALT / AST / BUN / CRE / Ca / Cl / DBIL / GLC / IP / K / LDH / Na / PL / RALB / TBIL / TC / TG / TP / gamma-GTP: tissue Plasma

CCOc1ccc(NC(=O)CC(C)O)cc1 (configuration not stated) [BUCETIN]
TERMINAL_BW (72 h, time 3 day): 249.6 g | APTT (72 h, time 3 day): 17.8 s | Bas (72 h, time 3 day): 0% | Eos (72 h, time 3 day): 1% | Fbg (72 h, time 3 day): 305.2 mg/dL | Hb (72 h, time 3 day): 13.4 g/dL | Ht (72 h, time 3 day): 40.2% | Lym (72 h, time 3 day): 73.4% | MCH (72 h, time 3 day): 21.3 pg | MCHC (72 h, time 3 day): 33.3% | MCV (72 h, time 3 day): 64.1 fL | Mono (72 h, time 3 day): 3% | Neu (72 h, time 3 day): 22% | PT (72 h, time 3 day): 14 s | Plat (72 h, time 3 day): 120.3 x10_4/uL | RBC (72 h, time 3 day): 627 x10_4/ul | Ret (72 h, time 3 day): 7.2% | WBC (72 h, time 3 day): 91.6 x10_2/uL | KIDNEY_L (72 h, time 3 day): 1.1 g | KIDNEY_R (72 h, time 3 day): 1.1 g | KIDNEY_TOTAL (72 h, time 3 day): 2.1 g | LIVER (72 h, time 3 day): 11.9 g | A/G (72 h, time 3 day): 0.8 | ALP (72 h, time 3 day): 1726.4 IU/L | ALT (72 h, time 3 day): 33.8 IU/L | AST (72 h, time 3 day): 66.8 IU/L | BUN (72 h, time 3 day): 14.8 mg/dL | CRE (72 h, time 3 day): 0.2 mg/dL | Ca (72 h, time 3 day): 11 mg/dL | Cl (72 h, time 3 day): 105.4 meq/L | DBIL (72 h, time 3 day): 0.02 mg/dL | GLC (72 h, time 3 day): 179 mg/dL | IP (72 h, time 3 day): 7.5 mg/dL | K (72 h, time 3 day): 4.1 meq/L | LDH (72 h, time 3 day): 67.2 IU/L | Na (72 h, time 3 day): 144 meq/L | PL (72 h, time 3 day): 165.2 mg/dL | RALB (72 h, time 3 day): 2.7 g/dL | TBIL (72 h, time 3 day): 0.048 mg/dL | TC (72 h, time 3 day): 82.4 mg/dL | TG (72 h, time 3 day): 104.6 mg/dL | TP (72 h, time 3 day): 5.9 g/dL | gamma-GTP (72 h, time 3 day): 1.2 IU/L | TERMINAL_BW ([…], time 7 day): 287 g | TERMINAL_BW ([…], time 14 day): 375 g | TERMINAL_BW ([…], time 28 day): 420.9 g | APTT ([…], time 7 day): 16.5 s | Bas ([…], time 7 day): 0% | Eos ([…], time 7 day): 1.2% | Fbg ([…], time 7 day): 262.4 mg/dL | Hb ([…], time 7 day): 13.5 g/dL | Ht ([…], time 7 day): 40% | Lym ([…], time 7 day): 81.2% | MCH ([…], time 7 day): 20.7 pg | MCHC ([…], time 7 day): 33.7% | MCV ([…], time 7 day): 61.5 fL | Mono ([…], time 7 day): 2.6% | Neu ([…], time 7 day): 14.4% | PT ([…], time 7 day): 13.9 s | Plat ([…], time 7 day): 112.2 x10_4/uL | RBC ([…], time 7 day): 651 x10_4/ul | Ret ([…], time 7 day): 6.3% | WBC ([…], time 7 day): 93.2 x10_2/uL | APTT ([…], time 14 day): 17.7 s | Bas ([…], time 14 day): 0.2% | Eos ([…], time 14 day): 1% | Fbg ([…], time 14 day): 321.4 mg/dL | Hb ([…], time 14 day): 14 g/dL | Ht ([…], time 14 day): 41.7% | Lym ([…], time 14 day): 75.8% | MCH ([…], time 14 day): 20.2 pg | MCHC ([…], time 14 day): 33.6% | MCV ([…], time 14 day): 60.2 fL | Mono ([…], time 14 day): 2.4% | Neu ([…], time 14 day): 20.4% | PT ([…], time 14 day): 13.8 s | Plat ([…], time 14 day): 127.4 x10_4/uL | RBC ([…], time 14 day): 694 x10_4/ul | Ret ([…], time 14 day): 4.6% | WBC ([…], time 14 day): 121.6 x10_2/uL | APTT ([…], time 28 day): 18.6 s | Bas ([…], time 28 day): 0.2% | Eos ([…], time 28 day): 1.2% | Fbg ([…], time 28 day): 296.4 mg/dL | Hb ([…], time 28 day): 15.3 g/dL | Ht ([…], time 28 day): 44% | Lym ([…], time 28 day): 79.4% | MCH ([…], time 28 day): 19.7 pg | MCHC ([…], time 28 day): 34.9% | MCV ([…], time 28 day): 56.5 fL | Mono ([…], time 28 day): 2.2% | Neu ([…], time 28 day): 16.6% | PT ([…], time 28 day): 13.9 s | Plat ([…], time 28 day): 99.2 x10_4/uL | RBC ([…], time 28 day): 778.4 x10_4/ul | Ret ([…], time 28 day): 2.7% | WBC ([…], time 28 day): 100.2 x10_2/uL | KIDNEY_L ([…], time 7 day): 1.2 g | KIDNEY_R ([…], time 7 day): 1.1 g | KIDNEY_TOTAL ([…], time 7 day): 2.3 g | KIDNEY_L ([…], time 14 day): 1.5 g | KIDNEY_R ([…], time 14 day): 1.3 g | KIDNEY_TOTAL ([…], time 14 day): 2.8 g | KIDNEY_L ([…], time 28 day): 1.4 g | KIDNEY_R ([…], time 28 day): 1.4 g | KIDNEY_TOTAL ([…], time 28 day): 2.9 g | LIVER ([…], time 7 day): 13.2 g | LIVER ([…], time 14 day): 17.3 g | LIVER ([…], time 28 day): 16.3 g | A/G ([…], time 7 day): 0.8 | ALP ([…], time 7 day): 1795.8 IU/L | ALT ([…], time 7 day): 32.2 IU/L | AST ([…], time 7 day): 65.6 IU/L | BUN ([…], time 7 day): 15.4 mg/dL | CRE ([…], time 7 day): 0.2 mg/dL | Ca ([…], time 7 day): 11 mg/dL | Cl ([…], time 7 day): 105.2 meq/L | DBIL ([…], time 7 day): 0.018 mg/dL | GLC ([…], time 7 day): 185 mg/dL | IP ([…], time 7 day): 7.3 mg/dL | K ([…], time 7 day): 4 meq/L | LDH ([…], time 7 day): 95.2 IU/L | Na ([…], time 7 day): 142.6 meq/L | PL ([…], time 7 day): 166.6 mg/dL | RALB ([…], time 7 day): 2.6 g/dL | TBIL ([…], time 7 day): 0.038 mg/dL | TC ([…], time 7 day): 77.8 mg/dL | TG ([…], time 7 day): 144 mg/dL | TP ([…], time 7 day): 5.8 g/dL | gamma-GTP ([…], time 7 day): 1 IU/L | A/G ([…], time 14 day): 0.8 | ALP ([…], time 14 day): 1354.4 IU/L | ALT ([…], time 14 day): 33 IU/L | AST ([…], time 14 day): 60.8 IU/L | BUN ([…], time 14 day): 16 mg/dL | CRE ([…], time 14 day): 0.2 mg/dL | Ca ([…], time 14 day): 11.1 mg/dL | Cl ([…], time 14 day): 104.4 meq/L | DBIL ([…], time 14 day): 0.02 mg/dL | GLC ([…], time 14 day): 188.8 mg/dL | IP ([…], time 14 day): 7.4 mg/dL | K ([…], time 14 day): 3.9 meq/L | LDH ([…], time 14 day): 97.4 IU/L | Na ([…], time 14 day): 144.8 meq/L | PL ([…], time 14 day): 170.2 mg/dL | RALB ([…], time 14 day): 2.8 g/dL | TBIL ([…], time 14 day): 0.05 mg/dL | TC ([…], time 14 day): 81 mg/dL | TG ([…], time 14 day): 160.8 mg/dL | TP ([…], time 14 day): 6.3 g/dL | gamma-GTP ([…], time 14 day): 1.2 IU/L | A/G ([…], time 28 day): 0.8 | ALP ([…], time 28 day): 1201 IU/L | ALT ([…], time 28 day): 30.8 IU/L | AST ([…], time 28 day): 62.4 IU/L | BUN ([…], time 28 day): 15.2 mg/dL | CRE ([…], time 28 day): 0.3 mg/dL | Ca ([…], time 28 day): 11 mg/dL | Cl ([…], time 28 day): 105.8 meq/L | DBIL ([…], time 28 day): 0.022 mg/dL | GLC ([…], time 28 day): 188.6 mg/dL | IP ([…], time 28 day): 5.8 mg/dL | K ([…], time 28 day): 3.9 meq/L | LDH ([…], time 28 day): 69.6 IU/L | Na ([…], time 28 day): 145.4 meq/L | PL ([…], time 28 day): 146.2 mg/dL | RALB ([…], time 28 day): 2.8 g/dL | TBIL ([…], time 28 day): 0.058 mg/dL | TC ([…], time 28 day): 65.4 mg/dL | TG ([…], time 28 day): 155.6 mg/dL | TP ([…], time 28 day): 6.3 g/dL | gamma-GTP ([…], time 28 day): 2 IU/L
